Where “and” joins values, the source holds several entries; their conditions need not be identical. Identical values can stand only once. ± gives the expanded uncertainty stated by the source.
Experiments:
[1] = for mass density: 298.15 K, 101.33 kPa, mass/volume ratio of a pellet; for Normal melting temperature: DTA
[2] = Molar enthalpy of transition or fusion; conditions: Crystal; DSC
[3] = molar enthalpy of vaporization or sublimation; conditions: 298.15 K; Crystal; Static calorimetry

Question: For `OCC1c2ccccc2-c2ccccc21` [9-fluorenemethanol], which mass density ([1]; Crystal) is on record?
Answer: 1084 ± 110 kg/m3

Question: What about the “vapor or sublimation pressure” value ([1]; 337.18 K, Crystal, Calculated from knudsen effusion weight loss) of the same molecule?
Answer: 9.2e-05 ± 2e-05 kPa and 9e-05 ± 2e-05 kPa

Question: What about the “vapor or sublimation pressure” value ([1]; 339.17 K, Crystal, Calculated from knudsen effusion weight loss) of the same molecule?
Answer: 0.000119 ± 2e-05 kPa and 0.000117 ± 2e-05 kPa and 0.000115 ± 2e-05 kPa

Question: What about the “vapor or sublimation pressure” value ([1]; 341.1 K, Crystal, Calculated from knudsen effusion weight loss) of the same molecule?
Answer: 0.00015 ± 2.1e-05 kPa and 0.000147 ± 2.1e-05 kPa

Question: What about the “vapor or sublimation pressure” value ([1]; 343.17 K, Crystal, Calculated from knudsen effusion weight loss) of the same molecule?
Answer: 0.00019 ± 2.1e-05 kPa and 0.000187 ± 2.1e-05 kPa and 0.000197 ± 2.1e-05 kPa

Question: And the “vapor or sublimation pressure” value ([1]; 345.21 K, Crystal, Calculated from knudsen effusion weight loss)?
Answer: 0.000247 ± 2.2e-05 kPa and 0.000239 ± 2.2e-05 kPa and 0.000243 ± 2.2e-05 kPa

Question: What about the “vapor or sublimation pressure” value ([1]; 347.13 K, Crystal, Calculated from knudsen effusion weight loss) of the same molecule?
Answer: 0.000306 ± 2.3e-05 kPa and 0.000303 ± 2.3e-05 kPa and 0.000302 ± 2.3e-05 kPa

Question: And the “vapor or sublimation pressure” value ([1]; 349.16 K, Crystal, Calculated from knudsen effusion weight loss)?
Answer: 0.00038 ± 2.4e-05 kPa and 0.000381 ± 2.4e-05 kPa and 0.00039 ± 2.4e-05 kPa

Question: What about the “vapor or sublimation pressure” value ([1]; 351.22 K, Crystal, Calculated from knudsen effusion weight loss) of the same molecule?
Answer: 0.000493 ± 2.7e-05 kPa and 0.000476 ± 2.6e-05 kPa and 0.000488 ± 2.6e-05 kPa

Question: What about the “vapor or sublimation pressure” value ([1]; 353.14 K, Crystal, Calculated from knudsen effusion weight loss) of the same molecule?
Answer: 0.000611 ± 2.9e-05 kPa and 0.000602 ± 2.9e-05 kPa and 0.000607 ± 2.9e-05 kPa

Question: And the “vapor or sublimation pressure” value ([1]; 355.17 K, Crystal, Calculated from knudsen effusion weight loss)?
Answer: 0.000748 ± 3.3e-05 kPa and 0.000739 ± 3.3e-05 kPa and 0.000772 ± 3.4e-05 kPa

Question: And the “vapor or sublimation pressure” value ([1]; 357.16 K, Crystal, Calculated from knudsen effusion weight loss)?
Answer: 0.00095 ± 3.9e-05 kPa and 0.000955 ± 3.9e-05 kPa and 0.000923 ± 3.8e-05 kPa

Question: And the “vapor or sublimation pressure” value ([1]; 359.1 K, Crystal, Calculated from knudsen effusion weight loss)?
Answer: 0.00118 ± 9.5e-05 kPa and 0.001184 ± 9.5e-05 kPa and 0.001169 ± 9.4e-05 kPa

Question: And the “vapor or sublimation pressure” value ([1]; 362.69 K, Liquid, Closed cell (Static) method)?
Answer: 0.00242 ± 0.00016 kPa

Question: What about the “vapor or sublimation pressure” value ([1]; 364.67 K, Liquid, Closed cell (Static) method) of the same molecule?
Answer: 0.00285 ± 0.00017 kPa

Question: And the “vapor or sublimation pressure” value ([1]; 366.66 K, Liquid, Closed cell (Static) method)?
Answer: 0.00333 ± 0.00018 kPa

Question: What about the “vapor or sublimation pressure” value ([1]; 368.63 K, Liquid, Closed cell (Static) method) of the same molecule?
Answer: 0.00391 ± 0.0002 kPa

Question: What about the “vapor or sublimation pressure” value ([1]; 370.62 K, Liquid, Closed cell (Static) method) of the same molecule?
Answer: 0.00456 ± 0.00022 kPa

Question: What about the “vapor or sublimation pressure” value ([1]; 372.6 K, Liquid, Closed cell (Static) method) of the same molecule?
Answer: 0.00529 ± 0.00024 kPa

Question: What about the “vapor or sublimation pressure” value ([1]; 374.57 K, Liquid, Closed cell (Static) method) of the same molecule?
Answer: 0.00615 ± 0.00027 kPa

Question: What about the “vapor or sublimation pressure” value ([1]; 376.56 K, Liquid, Closed cell (Static) method) of the same molecule?
Answer: 0.00711 ± 0.00031 kPa

Question: And the “vapor or sublimation pressure” value ([1]; 378.53 K, Liquid, Closed cell (Static) method)?
Answer: 0.00817 ± 0.00034 kPa

Question: And the “vapor or sublimation pressure” value ([1]; 380.52 K, Liquid, Closed cell (Static) method)?
Answer: 0.00947 ± 0.00039 kPa

Question: And the “vapor or sublimation pressure” value ([1]; 382.5 K, Liquid, Closed cell (Static) method)?
Answer: 0.01089 ± 0.00044 kPa

Question: And the “vapor or sublimation pressure” value ([1]; 384.49 K, Liquid, Closed cell (Static) method)?
Answer: 0.01253 ± 0.00051 kPa

Question: What about the “vapor or sublimation pressure” value ([1]; 386.47 K, Liquid, Closed cell (Static) method) of the same molecule?
Answer: 0.0143 ± 0.00054 kPa

Question: What about the “vapor or sublimation pressure” value ([1]; 388.43 K, Liquid, Closed cell (Static) method) of the same molecule?
Answer: 0.01639 ± 0.00057 kPa

Question: What about the “vapor or sublimation pressure” value ([1]; 390.43 K, Liquid, Closed cell (Static) method) of the same molecule?
Answer: 0.0188 ± 0.00061 kPa

Question: What about the “vapor or sublimation pressure” value ([1]; 392.39 K, Liquid, Closed cell (Static) method) of the same molecule?
Answer: 0.02137 ± 0.00065 kPa

Question: And the “vapor or sublimation pressure” value ([1]; 394.37 K, Liquid, Closed cell (Static) method)?
Answer: 0.02432 ± 0.00069 kPa

Question: And the “vapor or sublimation pressure” value ([1]; 396.35 K, Liquid, Closed cell (Static) method)?
Answer: 0.02764 ± 0.00074 kPa

Question: And the “vapor or sublimation pressure” value ([1]; 398.32 K, Liquid, Closed cell (Static) method)?
Answer: 0.03131 ± 0.0008 kPa

Question: And the “vapor or sublimation pressure” value ([1]; 400.3 K, Liquid, Closed cell (Static) method)?
Answer: 0.03556 ± 0.00086 kPa

Question: What about the Normal melting temperature ([1]; Crystal) of the same molecule?
Answer: 103.92 ± 0.41 °C

Question: What about the “Molar enthalpy of transition or fusion” value [2] of the same molecule?
Answer: 6.67 ± 0.148 kcal/mol

Question: What does the source list for `O=C(O)C1c2ccccc2-c2ccccc21` [9H-fluorene-9-carboxylic acid]?
Answer: molar enthalpy [3]: 30.4 ± 0.502 kcal/mol; mass density ([1]; Crystal): 1164 ± 120 kg/m3; vapor or sublimation pressure ([1]; 384.16 K, Crystal, Calculated from knudsen effusion weight loss): 0.000139 ± 2.1e-05 kPa; vapor or sublimation pressure ([1]; 386.13 K, Crystal, Calculated from knudsen effusion weight loss): 0.000171 ± 2.1e-05 kPa; vapor or sublimation pressure ([1]; 388.15 K, Crystal, Calculated from knudsen effusion weight loss): 0.000211 ± 2.1e-05 kPa; vapor or sublimation pressure ([1]; 392.14 K, Crystal, Calculated from knudsen effusion weight loss): 0.000307 ± 2.3e-05 kPa; vapor or sublimation pressure ([1]; 394.15 K, Crystal, Calculated from knudsen effusion weight loss): 0.000378 ± 2.4e-05 kPa; vapor or sublimation pressure ([1]; 396.15 K, Crystal, Calculated from knudsen effusion weight loss): 0.000474 ± 2.6e-05 kPa; vapor or sublimation pressure ([1]; 398.15 K, Crystal, Calculated from knudsen effusion weight loss): 0.000558 ± 2.8e-05 kPa; vapor or sublimation pressure ([1]; 400.13 K, Crystal, Calculated from knudsen effusion weight loss): 0.000689 ± 3.2e-05 kPa; vapor or sublimation pressure ([1]; 402.14 K, Crystal, Calculated from knudsen effusion weight loss): 0.000811 ± 3.5e-05 kPa; vapor or sublimation pressure ([1]; 404.15 K, Crystal, Calculated from knudsen effusion weight loss): 0.000994 ± 4e-05 kPa; vapor or sublimation pressure ([1]; 406.16 K, Crystal, Calculated from knudsen effusion weight loss): 0.001182 ± 9.5e-05 kPa; Normal melting temperature ([1]; Crystal): 230.68 ± 0.56 °C; Molar enthalpy of transition or fusion [2]: 7.23 ± 0.174 kcal/mol
